Results taken from patent publication US20020107231A1, “Remedy for autoimmune diseases” (priority 1992, published 2002).
Counter-ions that a name gives are not always drawn.

Experiments:
Type in all cases: in vivo, mouse
[1] = tested on: MRL/Mp-lpr/lpr mice; assay: Suppression of renal disorder (glomerulonephritis score, BUN) of MRL/Mp-lpr/lpr mice; conditions: 100 mg/kg orally once a day for 13 weeks
Description: (§1) Eight-week old female MRL/Mp-lpr/lpr mice (Clea Japan, Inc.) were used in this examination. Toremifene citrate (JP-B-4 19973) was suspended in carboxymethylcellulose to prepare a 0.5% suspension. This compound (100 mg/kg) was orally administered to each mouse once a day for 13 weeks.
An autopsy was performed on the mice of the control group and the toremifene citrate treated group after the completion of the administration to examine their kidneys pathohistologically. The blood urea nitrogen (BUN) of the serum in each group was examined to confirm changes in the renal function.
1) The kidney was fixed in 10% buffered formalin, and then paraffin sections thereof were prepared by an ordinary method to prepare HE and PAS stained specimens. The extent of the disorder of the renal glomeruli was scored and classified into the following groups:
2) The BUN was determined with a Fuji Dry Chem Analyzer.

[2] = tested on: MRL/Mp-lpr/lpr mice; assay: Inhibition of swelling of spleen and lymph node of MRL/Mp-lpr/lpr mice; conditions: 100 mg/kg orally once a day for 13 weeks
Description: as §1

[3] = tested on: NZB×NZW mice (B/W F1 mice); assay: Comparison of survival time of NZB×NZW F1 mice; conditions: for animals alive after one year / animals died at/before the age of 40 weeks / animals still alive after almost two years' time: female mice; for animals alive after one year: female control 20%; for animals died at/before the age of 40 weeks: female control 50% died
Description: NZB×NZW mice (B/W F1 mice) were used as a pathological model of autoimmune diseases (systemic lupus erythematodes). Effect of toremifene citrate on the survival time of the animals was investigated.
F1-hybrids of NZB (female) and NZW (male) mice (B/W F1 mice): Imported from Bomholtgaard, Denmark at the age of five weeks.
Toremifene citrate 30 mg/kg/day: administration 70 mg/kg in polyethylene glycol solution 3 times a week per os to female NZB×NZW F1 mice
Toremifene citrate 3 mg/kg/day: administration 7 mg/kg in polyethylene glycol solution 3 times a week per os to female NZB×NZW F1 mice
All but two female control animals have died during the almost two years' follow-up time. Fifty percents of the animals in this group died before/at the age of 40 weeks, and 20% (4/20) were alive after one year.

[4] = tested on: MRL/Mp-lpr/lpr mice; assay: Inhibition of sialadenitis, angitis and arthritis of MRL/Mp-lpr/lpr mice (histopathology); conditions: 100 mg/kg orally once a day for 13 weeks
Description: as §1
The salivary gland, renal blood vessel and knee joint of each mouse in the control group and the toremifene citrate treated group were histopathologically examined.
1) The salivary gland, kidney and knee joint were fixed in 10% buffered formalin, and then paraffin sections thereof were prepared by an ordinary method to prepare HE and PAS stained specimens. The extent of the disorder was scored and classified into the following groups: […]

[5] = tested on: MRL/Mp-lpr/lpr mice; assay: Suppression of glomerulonephritis (Mac 2 number per glomerulus) by concomitant use of toremifene citrate with glucocorticoid; conditions: for change in Mac 2 number as compared with the control (in words): all dose groups, 9 weeks, t-test
Description: Twelve-week old female MRL/Mp-lpr/lpr mice were used in the examination. Thirty miligrams per kg or 15 mg/kg of toremifene citrate (TOR) was orally administered to each mouse twice a day for 9 weeks from the 12th week to the 21st week. A glucocorticoid (prednisolone), 8, 4 and 2 mg/kg/day, were subcutaneously administered to mice once a day as a positive control drug. The concomitant use of tremifene with the glucocorticoid was also carried out according to the same regimen as above. The kidney was taken out from each mouse the day after the completion of the whole administration period and fixed in a PLP fixative. Frozen sections were made from the fixed kidney and used for an immunostaining with an anti-Mac-2 monoclonal antibody (Hybritec Inc., San Diego, USA). The number of Mac-2 positive cells (activated macrophages) invading each of 10 to 20 glomeruli of the kidney, which is hereinafter referred to as Mac 2 number, was counted under a microscopy to determine an average Mac 2 number per glomerulus. The degree of severeness of glomerulonephritis was estimated in terms of the average Mac 2 number (n=13 for each group).

[6] = 3 mg/kg/day (7 mg/kg 3 times a week per os)
[7] = 30 mg/kg/day (70 mg/kg 3 times a week per os)

## CN(C)CCOc1ccc(/C(=C(/CCCl)c2ccccc2)c2ccccc2)cc1 [Toremifene citrate, 2[4-(Z)-4-Chloro-1,2-Diphenyl-1-Butenyl]Phenoxy-N,N-Dimethylethylamine Citrate]
[1]
  glomerulonephritis (in words): ameliorated the glomerulonephritis
  renal function (in words): healed the renal function
[1]; mean ± standard deviation, control 2.4 ± 0.7
  Glomerulonephritis (score 0-3, average of 25 renal glomeruli): 1.2 ± 0.7
[1]; serum, mean ± standard deviation, control 43.1 ± 23.9
  BUN: 24.6 ± 4.9 mg/dL
[2]
  swelling of the spleen and lymph node (in words): inhibited the swelling of the spleen and lymph node
[2]; 8-week old female mice, mean ± standard deviation, control 2.34 ± 0.74
  swelling of spleen ([formula]): 1.38 ± 1.06
[2]; 8-week old female mice, mean ± standard deviation, control 6.77 ± 1.70
  swelling of lymph node ([formula]): 3.11 ± 1.43
[3]; [6]
  animals alive after one year: 80%
  animals died at/before the age of 40 weeks: 1/20
[3]; [7]
  animals alive after one year: 85%
  animals died at/before the age of 40 weeks: 3/20
[3]; both treatment groups (3 and 30 mg/kg/day)
  life span compared to the female control animals (in words): lengthened clearly
[3]; higher dosage group (30 mg/kg/day)
  animals still alive after almost two years' time: 10%
[3]; lower dosage group (3 mg/kg/day)
  animals still alive after almost two years' time: 25%
[4]
  attack by sialadenitis, angitis and arthritis (in words): prevented the mice from being attacked by sialadenitis, angitis and arthritis
[4]; knee joint, mean ± standard deviation, control 1.6 ± 0.9
  Arthritis (score 0-3): 0.4 ± 0.5
[4]; renal blood vessel, mean ± standard deviation, control 2.1 ± 0.7
  Angitis (score 0-3): 0.9 ± 0.8
[4]; salivary gland, mean ± standard deviation, control 2.2 ± 0.6
  Sialadenitis (score 0-3): 0.9 ± 0.8
[5]; TOR 15 mg/kg orally twice a day for 9 weeks, first series, control 7.5 ± 1.5
  Mac 2 number: 6.5 ± 1.2
[5]; TOR 30 mg/kg orally twice a day for 9 weeks, first series, control 7.5 ± 1.5
  Mac 2 number: 6.2 ± 1.0
[5]
  change in Mac 2 number as compared with the control (in words): did not exhibit any significant decrease in Mac 2 number

## C[C@]12C=CC(=O)C=C1CC[C@@H]1[C@@H]2[C@@H](O)C[C@@]2(C)[C@H]1CC[C@]2(O)C(=O)CO [Prednisolone, prednisolone]
[5]
  change in Mac 2 number as compared with the control (in words): did not exhibit any significant decrease in Mac 2 number
[5]; prednisolone 2 mg/kg subcutaneously once a day for 9 weeks, first series, control 7.5 ± 1.5
  Mac 2 number: 9.4 ± 1.0
[5]; prednisolone 2 mg/kg subcutaneously once a day for 9 weeks, second series, control 11.3 ± 1.2
  Mac 2 number: 7.7 ± 1.0
[5]; prednisolone 4 mg/kg subcutaneously once a day for 9 weeks, first series, control 7.5 ± 1.5
  Mac 2 number: 7.9 ± 0.7
[5]; prednisolone 4 mg/kg subcutaneously once a day for 9 weeks, second series, control 11.3 ± 1.2
  Mac 2 number: 9.1 ± 1.4
[5]; prednisolone 8 mg/kg subcutaneously once a day for 9 weeks, first series, control 7.5 ± 1.5
  Mac 2 number: 5.8 ± 0.8
